From patent US20240400542A1 (University of Virginia Patent Foundation, priority 2021, published 2024)

Biological target: T1, PFKL (Homo sapiens, UniProt P17858)
T1 construct: endogenous in cells; host or cells: HEK293T
T1 sequence (P17858 1-780): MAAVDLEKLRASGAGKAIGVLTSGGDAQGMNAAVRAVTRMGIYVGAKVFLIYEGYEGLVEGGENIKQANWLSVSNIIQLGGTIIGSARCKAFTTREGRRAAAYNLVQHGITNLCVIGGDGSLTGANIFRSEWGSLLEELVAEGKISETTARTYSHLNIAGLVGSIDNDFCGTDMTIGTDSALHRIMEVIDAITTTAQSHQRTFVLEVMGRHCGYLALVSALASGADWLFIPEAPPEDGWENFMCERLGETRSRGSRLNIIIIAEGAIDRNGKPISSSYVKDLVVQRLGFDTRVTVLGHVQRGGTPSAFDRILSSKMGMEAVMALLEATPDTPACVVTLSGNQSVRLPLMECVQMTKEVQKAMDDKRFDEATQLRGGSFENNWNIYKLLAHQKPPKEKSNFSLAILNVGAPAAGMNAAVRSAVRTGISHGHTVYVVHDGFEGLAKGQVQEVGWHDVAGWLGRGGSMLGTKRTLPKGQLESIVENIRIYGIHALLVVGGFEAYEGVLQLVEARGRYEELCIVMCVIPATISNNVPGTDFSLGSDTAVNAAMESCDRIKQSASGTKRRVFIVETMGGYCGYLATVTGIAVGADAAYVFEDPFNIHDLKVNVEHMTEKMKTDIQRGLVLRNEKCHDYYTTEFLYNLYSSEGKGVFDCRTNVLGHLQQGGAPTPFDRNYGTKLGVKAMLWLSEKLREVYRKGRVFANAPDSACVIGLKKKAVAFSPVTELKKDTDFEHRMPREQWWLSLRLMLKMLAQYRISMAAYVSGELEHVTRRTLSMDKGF
Assay: SILAC competitive chemical proteomic assay (TH211 probe, LC-MS/MS)
Format: cell-based
Procedure: The light and heavy proteomes (2.3 mg/mL, 432 μL) prepared from HEK293T cells that were pretreated in situ with vehicle (DMSO) or the inhibitor (2 μM), respectively, at 37° C. for 1 hr followed by probe TH211 treatment (50 μM) for 2 h, were directly were subjected to click reaction with the desthiobiotin-PEG3-azide (10 mM in DMSO, 10 μL, final concentration 200 μM) in the presence of TCEP (50 mM, 10 μL), TBTA (1.7 mM, 33 μL) and CuSO4 (50 mM, 10 μL) at room temperature for 1 hr. The light and the heavy samples were mixed in the chloroform-methanol extraction step. The subsequent steps including reduction with dithiothreitol, alkylation with iodoacetamide, digestion with Trypsin/Lys-C, enrichment with avidin beads were conducted as previously described^26.
Some SuTEx analogues with RF001 fragment were synthesized and characterized. The in situ competition assay was then conducted, during which HEK293T cells were treated with 1 μM of a SuTEx analogue for 1 h, followed by treatment with 25 μM of TH211 as the probe for 2 h. […] The analogues with electron-donating groups like methyl or methoxy on the para position of phenyl performed better than those with electron-withdrawing groups. Under the same condition, the IC5o of TH220 was determined as 305.6 nM. The identity of the bound protein was studied by LC-MS/MS. The assay results indicated PFKL as the potential target and that binding sites include Y674 and K677, since the ratio trends are the same as that found in the in situ competition assay. To study selective targeting of PFKL by the series of SuTEx analogues, Fag-PFKL, Flag-PFKM, and Flag-PFKP were overexpressed in HEK293T cells and in vitro competition assays were performed for comparison. […] To optimize these SuTEx ligands, another series of derivatives were synthesized and evaluated with TH233 as a negative control and TH220 as positive control, respectively. […] Compared to TH220, the probinding activity of XJ-2-103 with trifluoromethyl group at para position of the phenyl ring is not as good, which is consistent with the results shown in FIG. 18A.

SMILES: Cc1ccc(S(=O)(=O)n2cc(CCN3CCC(=C(c4ccc(F)cc4)c4ccc(F)cc4)CC3)nn2)cc1 [TH207, 4-(Bis(4-fluorophenyl)methylene)-1-(2-(1-tosyl-1H-1,2,3-triazol-4-yl)ethyl)piperidine]
- SILAC ratios (SR) from competitive chemical proteomic assay (HEK293T in situ, vehicle (light) vs inhibitor 2 μM (heavy) 1 hr, then TH211 50 μM 2 h, protein/site not given): 3.41
- Normalized SILAC ratio (SR), PFKL K677 (TH207 inhibitor, HEK293T soluble fraction, P17858.6 lysine 677): 2.7
- Normalized SILAC ratio (SR), PFKL Y674 (TH207 inhibitor, HEK293T soluble fraction, P17858.6 tyrosine 674): 2.7
